# What was measured:
# Test in all cases: autophosphorylation, SDS-PAGE autoradiography
# Type in all cases: biochemical
# [1] = target: T1, CC2874 (Caulobacter vibrioides, UniProt Q9A4G0); details: 500 µM ATP with [γ-32P]ATP; 5 mM MgCl2, pH 8.0, room temperature, 15 min; labelled compound
# T1 construct: gene CC_2874; recombinant from E. coli BL21, MBP-tagged (partly cleaved), Ni-NTA purified
# T1 sequence (Q9A4G0 1-794): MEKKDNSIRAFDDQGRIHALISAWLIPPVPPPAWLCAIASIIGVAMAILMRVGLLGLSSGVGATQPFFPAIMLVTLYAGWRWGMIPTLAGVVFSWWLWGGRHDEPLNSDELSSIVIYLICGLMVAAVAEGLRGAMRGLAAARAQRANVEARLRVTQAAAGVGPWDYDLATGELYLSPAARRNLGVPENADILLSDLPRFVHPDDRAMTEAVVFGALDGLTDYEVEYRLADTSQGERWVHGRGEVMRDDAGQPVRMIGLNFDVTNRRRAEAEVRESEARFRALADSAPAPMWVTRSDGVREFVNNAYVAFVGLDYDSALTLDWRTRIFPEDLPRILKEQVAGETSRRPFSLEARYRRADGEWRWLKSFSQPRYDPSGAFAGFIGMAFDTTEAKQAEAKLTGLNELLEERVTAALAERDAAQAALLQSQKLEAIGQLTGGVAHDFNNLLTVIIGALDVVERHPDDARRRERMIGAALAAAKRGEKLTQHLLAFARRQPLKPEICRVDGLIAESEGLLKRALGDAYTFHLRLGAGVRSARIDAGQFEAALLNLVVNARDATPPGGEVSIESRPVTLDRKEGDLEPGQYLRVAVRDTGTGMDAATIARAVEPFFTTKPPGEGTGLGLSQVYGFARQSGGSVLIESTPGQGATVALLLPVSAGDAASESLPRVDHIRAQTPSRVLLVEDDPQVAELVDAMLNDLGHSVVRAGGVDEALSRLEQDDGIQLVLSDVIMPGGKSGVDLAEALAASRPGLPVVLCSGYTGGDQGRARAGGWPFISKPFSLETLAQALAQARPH
# [2] = target: T2, CC3170 (Caulobacter vibrioides, UniProt Q9A3N2); details: 500 µM ATP with [γ-32P]ATP; 5 mM MgCl2, pH 8.0, room temperature, 30 min; labelled compound
# T2 construct: gene CC_3170; recombinant from E. coli BL21, Ni-NTA purified
# T2 sequence (Q9A3N2 1-473): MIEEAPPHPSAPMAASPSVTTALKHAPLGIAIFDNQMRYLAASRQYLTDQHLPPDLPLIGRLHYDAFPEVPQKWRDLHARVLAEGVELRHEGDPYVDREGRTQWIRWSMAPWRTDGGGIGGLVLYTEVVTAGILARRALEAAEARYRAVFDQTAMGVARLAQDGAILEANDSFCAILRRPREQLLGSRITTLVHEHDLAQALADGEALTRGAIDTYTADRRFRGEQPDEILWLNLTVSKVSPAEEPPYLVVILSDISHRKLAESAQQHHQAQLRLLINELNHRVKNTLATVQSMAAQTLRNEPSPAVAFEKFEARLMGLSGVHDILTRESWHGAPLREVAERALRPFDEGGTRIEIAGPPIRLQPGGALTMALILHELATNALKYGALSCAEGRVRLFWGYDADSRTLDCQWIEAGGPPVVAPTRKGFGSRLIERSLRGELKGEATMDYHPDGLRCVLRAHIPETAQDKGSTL
# [3] = target: T3, CC2554 (Caulobacter vibrioides, UniProt Q9A599); details: 500 µM ATP with [γ-32P]ATP; 5 mM MgCl2, pH 8.0, room temperature, 15 min; labelled compound
# T3 construct: gene CC_2554; recombinant from E. coli BL21, Ni-NTA purified
# T3 sequence (Q9A599 1-338): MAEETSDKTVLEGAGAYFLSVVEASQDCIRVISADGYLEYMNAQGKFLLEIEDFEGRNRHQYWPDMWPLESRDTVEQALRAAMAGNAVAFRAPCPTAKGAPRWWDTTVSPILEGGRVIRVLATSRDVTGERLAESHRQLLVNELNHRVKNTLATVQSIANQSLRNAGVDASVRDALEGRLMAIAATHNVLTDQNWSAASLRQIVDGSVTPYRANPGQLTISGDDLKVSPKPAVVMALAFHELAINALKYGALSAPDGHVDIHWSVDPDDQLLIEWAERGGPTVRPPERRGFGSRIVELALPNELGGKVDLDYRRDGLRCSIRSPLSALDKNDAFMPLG
# [4] = target: T4, CC2874 lacking its C-terminal receiver domain (ΔREC) (Caulobacter vibrioides, UniProt Q9A4G0); details: 500 µM ATP with [γ-32P]ATP; 5 mM MgCl2, pH 8.0, room temperature, 15 min; labelled compound
# T4 construct: gene CC_2874; recombinant from E. coli BL21, Ni-NTA purified
# [5] = target: T5, CC3058 (Caulobacter vibrioides, UniProt Q9A3Z2); details: 500 µM ATP with [γ-32P]ATP; 5 mM MgCl2, pH 8.0, room temperature, 30 min; labelled compound
# T5 construct: gene CC_3058; recombinant from E. coli BL21, Ni-NTA purified
# T5 sequence (Q9A3Z2 1-465): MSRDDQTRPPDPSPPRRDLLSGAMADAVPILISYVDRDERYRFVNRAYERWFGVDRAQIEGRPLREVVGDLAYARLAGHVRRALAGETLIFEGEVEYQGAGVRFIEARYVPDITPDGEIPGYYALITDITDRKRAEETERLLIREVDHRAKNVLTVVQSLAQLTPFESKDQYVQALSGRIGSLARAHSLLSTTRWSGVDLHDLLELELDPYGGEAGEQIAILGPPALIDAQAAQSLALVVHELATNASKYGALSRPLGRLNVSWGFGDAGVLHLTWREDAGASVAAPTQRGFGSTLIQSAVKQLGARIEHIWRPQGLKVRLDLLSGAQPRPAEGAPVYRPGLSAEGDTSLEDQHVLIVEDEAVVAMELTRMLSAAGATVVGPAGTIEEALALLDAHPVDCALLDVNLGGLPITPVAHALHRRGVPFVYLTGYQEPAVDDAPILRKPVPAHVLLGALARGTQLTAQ
# [6] = target: T6, CC0836 (Caulobacter vibrioides, UniProt Q9A9X5); details: 500 µM ATP with [γ-32P]ATP; 5 mM MgCl2, pH 8.0, room temperature, 30 min; labelled compound
# T6 construct: gene CC_0836; recombinant from E. coli BL21, Ni-NTA purified
# T6 sequence (Q9A9X5 1-754): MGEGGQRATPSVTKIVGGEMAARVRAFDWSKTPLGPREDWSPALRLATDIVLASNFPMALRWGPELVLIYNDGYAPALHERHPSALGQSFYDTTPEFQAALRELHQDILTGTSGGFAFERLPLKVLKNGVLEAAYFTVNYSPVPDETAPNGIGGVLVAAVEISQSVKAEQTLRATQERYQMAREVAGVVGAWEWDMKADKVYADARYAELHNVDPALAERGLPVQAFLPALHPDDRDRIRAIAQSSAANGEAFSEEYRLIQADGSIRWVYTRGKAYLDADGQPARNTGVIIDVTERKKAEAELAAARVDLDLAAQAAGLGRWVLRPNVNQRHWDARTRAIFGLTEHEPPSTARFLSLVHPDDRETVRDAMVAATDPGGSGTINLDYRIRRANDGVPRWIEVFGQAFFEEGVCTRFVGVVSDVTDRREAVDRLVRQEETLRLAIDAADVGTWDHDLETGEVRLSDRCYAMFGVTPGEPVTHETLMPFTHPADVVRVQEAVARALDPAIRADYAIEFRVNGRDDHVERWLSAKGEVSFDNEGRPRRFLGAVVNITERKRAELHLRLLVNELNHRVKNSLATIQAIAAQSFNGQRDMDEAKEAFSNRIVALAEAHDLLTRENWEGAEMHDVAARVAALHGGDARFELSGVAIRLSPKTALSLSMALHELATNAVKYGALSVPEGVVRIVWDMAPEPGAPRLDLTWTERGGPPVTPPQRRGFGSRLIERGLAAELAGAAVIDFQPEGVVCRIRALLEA
# [7] = target: T7, CC1683 (Caulobacter vibrioides, UniProt Q9A7N7); details: 500 µM ATP with [γ-32P]ATP; 5 mM MgCl2, pH 8.0, room temperature, 30 min; labelled compound
# T7 construct: gene CC_1683; recombinant from E. coli BL21, Ni-NTA purified
# T7 sequence (Q9A7N7 1-555): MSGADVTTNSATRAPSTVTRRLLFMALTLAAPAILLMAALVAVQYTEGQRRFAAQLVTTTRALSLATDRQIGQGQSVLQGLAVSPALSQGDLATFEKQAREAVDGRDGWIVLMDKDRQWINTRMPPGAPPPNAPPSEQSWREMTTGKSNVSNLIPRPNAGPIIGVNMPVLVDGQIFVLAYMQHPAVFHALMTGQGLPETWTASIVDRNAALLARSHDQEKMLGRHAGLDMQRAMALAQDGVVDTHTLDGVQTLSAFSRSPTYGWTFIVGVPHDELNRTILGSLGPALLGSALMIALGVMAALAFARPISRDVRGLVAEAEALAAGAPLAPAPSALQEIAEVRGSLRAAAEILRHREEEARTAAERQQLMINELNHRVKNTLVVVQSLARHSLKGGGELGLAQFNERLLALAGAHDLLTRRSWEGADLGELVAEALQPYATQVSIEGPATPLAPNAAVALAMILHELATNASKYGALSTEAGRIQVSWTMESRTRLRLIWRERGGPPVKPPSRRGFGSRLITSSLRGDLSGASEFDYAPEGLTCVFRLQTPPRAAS
smiles,measurement,setting,value
Nc1ncnc2c1ncn2[C@@H]1O[C@H](COP(=O)(O)OP(=O)(O)OP(=O)(O)O)[C@@H](O)[C@H]1O [ATP],"autophosphorylation, SDS-PAGE autoradiography",[1],Autophosphorylation of histidine kinases CC2554 (left) and CC2874 (right) and phosphotransfer to MrrA.
same,"autophosphorylation, SDS-PAGE autoradiography",[2],"Purified kinases CC0836, CC1683, CC3058, and CC3170 were mixed with ATP"
same,"autophosphorylation, SDS-PAGE autoradiography",[3],Autophosphorylation of histidine kinases CC2554 (left) and CC2874 (right) and phosphotransfer to MrrA.
same,"autophosphorylation, SDS-PAGE autoradiography",[4],this part of the kinase is not required for autophosphorylation and phosphotransfer to MrrA
same,"autophosphorylation, SDS-PAGE autoradiography",[5],"Purified kinases CC0836, CC1683, CC3058, and CC3170 were mixed with ATP"
same,"autophosphorylation, SDS-PAGE autoradiography",[6],"Purified kinases CC0836, CC1683, CC3058, and CC3170 were mixed with ATP"
same,"autophosphorylation, SDS-PAGE autoradiography",[7],"Purified kinases CC0836, CC1683, CC3058, and CC3170 were mixed with ATP"

# — article PMC5964349, “A Single-Domain Response Regulator Functions as an Integrating Hub To Coordinate General Stress Response and Development in Alphaproteobacteria” (mBio, 2018)
